Some test systems named below: MDA-MB-435; NCI-H226; EKVX; MCF7; SNB-19; OVCAR-3; RPMI-8226; SN12C; TK-10; PC-3; OVCAR-8; BT-549; HCT-15; MOLT-4; A498; COLO 205; HL-60; SF-295; HCC 2998; OVCAR-4.
Holding throughout (test): NCI anticancer screen, dose series, 48 h

This is an account of results in ChEMBL document CHEMBL1201862, “PubChem BioAssay data set” (2004).

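Exposure lasted 48 hours, with cells grown in 96-well plates and compounds tested at five concentrations. GI50: concentration for 50% inhibition of growth.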 Active and inactive are the calls of the source. Cut-off read from the data, not from the text of the source: active = GI50 up to about 1.1 µM and inactive = higher.

Regarding `COC1CC(OC2CCC3(C)C(CCC45CCC(C6=CC(=O)OC6)C(C)(CCC43)C5=O)C2)OC(C)C1O` (stereo unspecified), the GI50 was > 100 µM (inactive) in the experiment on MDA-MB-435; 53.1 µM (inactive) in the experiment on NCI-H226; 32.4 µM (inactive) in the experiment with EKVX; 50.7 µM (inactive) with MCF7; 20.3 µM (inactive) in the experiment on SNB-19; 27.7 µM (inactive) in the experiment on OVCAR-3. In addition, the GI50 is > 10 µM (inactive) in the experiment on RPMI-8226; 23.5 µM (inactive) with SN12C; 51.2 µM (inactive) in the experiment on TK-10; 39.3 µM (inactive) in the experiment with PC-3; 55.8 µM (inactive) with OVCAR-8; 20.8 µM (inactive) with BT-549. Besides, the GI50 is 24.3 µM in the experiment with HCT-15; 32.1 µM (inactive) with MOLT-4; 71.4 µM (inactive) in the experiment on A498; 40.5 µM (inactive) in the experiment with COLO 205; 18.8 µM (inactive) in the experiment on HL-60; 33.9 µM (inactive) in the experiment with SF-295. Besides, in the experiment with HCC 2998, the GI50 is 13.1 µM (inactive).

Regarding `O=c1nc2n(CCO)c(-c3ccccc3)c(-c3ccccc3)nc-2c(=O)[nH]1`, the GI50 in the experiment on MDA-MB-435, in the experiment with NCI-H226, with EKVX, with MCF7, in the experiment with SNB-19 and with OVCAR-3 was > 100 µM (inactive) throughout. Further, the GI50 with RPMI-8226, with SN12C, in the experiment with TK-10, with PC-3, with OVCAR-8 and with BT-549 was > 100 µM (inactive) in each case. The GI50 is more than 100 µM with HCT-15; > 100 µM (inactive) in the experiment with MOLT-4; > 100 µM (inactive) with A498; > 100 µM (inactive) in the experiment on COLO 205; > 100 µM (inactive) in the experiment on OVCAR-4; > 100 µM (inactive) with SF-295. The GI50 with HCC 2998 was > 100 µM (inactive).

In the case of `O=C(c1cccs1)N(C(=S)OCc1ccccn1)c1ccccc1`, the GI50 was > 100 µM (inactive) in the experiment with MDA-MB-435; 32.9 µM (inactive) in the experiment with NCI-H226; 14.4 µM (inactive) in the experiment on EKVX; 68.4 µM (inactive) with MCF7; > 100 µM (inactive) in the experiment on SNB-19; 76.9 µM (inactive) in the experiment on OVCAR-3. Further, the GI50 is 37.4 µM (inactive) with RPMI-8226; 50.7 µM (inactive) with SN12C; > 100 µM (inactive) in the experiment on TK-10; 47.8 µM (inactive) with PC-3; 56.5 µM (inactive) in the experiment with OVCAR-8; 47.3 µM (inactive) in the experiment with BT-549. The GI50 in the experiment with HCT-15 was 53.2 µM; in the experiment with MOLT-4, 45.7 µM (inactive); with A498, 75.5 µM (inactive); in the experiment with COLO 205, 88.1 µM (inactive); with HL-60 it was 38.4 µM (inactive); in the experiment on SF-295, 40.4 µM (inactive).

As to `COC(=O)[C@](C)(Cc1ccccc1)NC(=O)[C@@H](C)N1[C@@H](c2ccccc2)COC1(C)C`, the GI50 in the experiment with MDA-MB-435 was 48.8 µM (inactive); in the experiment with NCI-H226, 56.2 µM (inactive); in the experiment on EKVX, 57.9 µM (inactive); in the experiment on MCF7 it was 52 µM (inactive); in the experiment on SNB-19 it was > 100 µM (inactive); in the experiment with OVCAR-3, 37.6 µM (inactive). Also, the GI50 was 39.5 µM (inactive) in the experiment with RPMI-8226; > 100 µM (inactive) with TK-10; 29.1 µM (inactive) with PC-3; 78.5 µM (inactive) in the experiment on OVCAR-8; 48.2 µM (inactive) in the experiment with BT-549; 37.7 µM in the experiment with HCT-15. The GI50 was 34.4 µM (inactive) in the experiment with MOLT-4; 99.8 µM (inactive) in the experiment with A498; 20.1 µM (inactive) in the experiment on COLO 205; 39.6 µM (inactive) with OVCAR-4; 63.5 µM (inactive) in the experiment with HL-60; 53 µM (inactive) in the experiment with SF-295.

As for `CN(C(=O)C12C3C4(C(=O)O)C1(C(=O)N(C)C(C)(C)C)C1C2(C(=O)O)C3(C(=O)N(C)C(C)(C)C)C14C(=O)N(C)C(C)(C)C)C(C)(C)C` (stereo unspecified), the GI50 with MDA-MB-435, in the experiment with EKVX, in the experiment with MCF7, in the experiment on SNB-19, in the experiment with OVCAR-3 and in the experiment on SN12C was > 100 µM (inactive) in each case. For the same compound, the GI50 in the experiment with TK-10 is > 100 µM (inactive); in the experiment on PC-3 it was > 100 µM (inactive); with OVCAR-8, > 100 µM (inactive); with BT-549, > 100 µM (inactive); with HCT-15 it was more than 100 µM; in the experiment on MOLT-4, > 100 µM (inactive). Also, the GI50 in the experiment with A498, in the experiment with COLO 205, with OVCAR-4, in the experiment with HL-60, with SF-295 and with HCC 2998 was > 100 µM (inactive) throughout.

As for `CC(C)CC(=O)CC(O)C(Cl)(Cl)Cl` (stereo unspecified), the GI50 with MDA-MB-435, in the experiment with NCI-H226, with EKVX, in the experiment on MCF7, in the experiment with SNB-19 and in the experiment with OVCAR-3 was > 100 µM (inactive) in each case. In addition, the GI50 with RPMI-8226, with SN12C, with TK-10, with PC-3, in the experiment with OVCAR-8 and in the experiment on BT-549 was > 100 µM (inactive) in each case. The GI50 in the experiment with HCT-15 is more than 100 µM; in the experiment with MOLT-4 it was > 100 µM (inactive); in the experiment on A498, > 100 µM (inactive); with COLO 205 it was > 100 µM (inactive); in the experiment on OVCAR-4, > 100 µM (inactive); in the experiment on SF-295, > 100 µM (inactive). Further, the GI50 in the experiment on HCC 2998 is > 100 µM (inactive).

As to `CC(=O)O[C@H]1CC[C@@]2(C)C(=CC[C@@H]3[C@@H]2CC[C@]2(C)NC(=O)/C(=C\c4ccccc4)C[C@@H]32)C1`, the GI50 in the experiment with MDA-MB-435 was 14.8 µM (inactive); in the experiment on NCI-H226, 18.3 µM (inactive); in the experiment on EKVX, 14.9 µM (inactive); in the experiment on MCF7, 14.9 µM (inactive); in the experiment with SNB-19, 16.1 µM (inactive); with OVCAR-3, 12.9 µM (inactive). Moreover, the GI50 with RPMI-8226 was 12.3 µM (inactive); in the experiment on SN12C, 18.7 µM (inactive); in the experiment on TK-10 it was 29.9 µM (inactive); in the experiment with PC-3, 18.4 µM (inactive); with OVCAR-8 it was 20.5 µM (inactive); in the experiment on BT-549, 18.6 µM (inactive). For the same compound, the GI50 in the experiment with HCT-15 is 18.6 µM; with MOLT-4 it was > 100 µM (inactive); in the experiment on A498, 13.8 µM (inactive); with COLO 205, 17.1 µM (inactive); in the experiment on OVCAR-4, 16.5 µM (inactive); in the experiment on SF-295 it was 17.8 µM (inactive). The GI50 in the experiment with HCC 2998 is 21.3 µM (inactive).

As for `COc1ccc(N2C(=O)C3c4[nH]c5c(C)cccc5c4C4CCC(c5ccccc5)CC4C3C2=O)cc1` (stereo unspecified), the GI50 is 12.3 µM (inactive) with MDA-MB-435; 10.4 µM (inactive) with NCI-H226; 26.2 µM (inactive) in the experiment on EKVX; 6.28 µM (inactive) in the experiment with MCF7; 21.9 µM (inactive) with SNB-19; 24.8 µM (inactive) in the experiment with OVCAR-3. Further, the GI50 is 7.55 µM (inactive) in the experiment on RPMI-8226; 16.2 µM (inactive) with SN12C; 32.1 µM (inactive) in the experiment on TK-10; 12.1 µM (inactive) with PC-3; 15.6 µM (inactive) in the experiment on OVCAR-8; 24.9 µM (inactive) with BT-549. The GI50 with HCT-15 is 11.9 µM; in the experiment on MOLT-4 it was 3.4 µM (inactive); with A498, 18.2 µM (inactive); in the experiment with COLO 205, 8.63 µM (inactive); in the experiment with OVCAR-4, 11.1 µM (inactive); in the experiment on SF-295, 17.5 µM (inactive). For the same compound, the GI50 in the experiment on HCC 2998 was > 10 µM (inactive).

On to `CNC(=O)c1ccccc1[S+]1c2cccc3cccc(c23)C(=O)N1C` (stereo unspecified), for which the GI50 in the experiment with MDA-MB-435, with NCI-H226, in the experiment on EKVX, in the experiment with MCF7, in the experiment on SNB-19 and in the experiment with OVCAR-3 was > 100 µM (inactive) each time. Also, the GI50 with RPMI-8226, in the experiment on SN12C, in the experiment on TK-10, in the experiment on PC-3, in the experiment on OVCAR-8 and in the experiment on BT-549 was > 100 µM (inactive) throughout. The GI50 was more than 100 µM with HCT-15; > 100 µM (inactive) in the experiment on MOLT-4; > 100 µM (inactive) in the experiment on A498; > 100 µM (inactive) in the experiment with COLO 205; > 100 µM (inactive) in the experiment with OVCAR-4; > 100 µM (inactive) in the experiment with HL-60. Also, the GI50 in the experiment with SF-295 is > 100 µM (inactive).

`COc1cc(O)c2c(O)c3c(=O)oc(C)cc3c(OC)c2c1` [PAEPALANTINE]: the GI50 is 18.3 µM (inactive) in the experiment with MDA-MB-435; 29.9 µM (inactive) in the experiment with EKVX; 32.6 µM (inactive) in the experiment with MCF7; 39.3 µM (inactive) in the experiment on SNB-19; 27.2 µM (inactive) in the experiment on OVCAR-3; 20 µM (inactive) in the experiment on RPMI-8226. Moreover, the GI50 in the experiment on SN12C is 24.1 µM (inactive); with TK-10, 29 µM (inactive); with PC-3, 28.4 µM (inactive); with OVCAR-8, 27.2 µM (inactive); with BT-549, 34.8 µM (inactive); in the experiment on HCT-15, 28.3 µM. Also, the GI50 with MOLT-4 is 23 µM (inactive); in the experiment with A498, 61.7 µM (inactive); in the experiment with COLO 205, 19.2 µM (inactive); in the experiment with OVCAR-4, 14.7 µM (inactive); with HL-60, 27.3 µM (inactive); with SF-295 it was 27 µM (inactive).
